13 compounds from US6828450B2, “Triptycene analogs” (Kansas State University Research Foundation, priority 2000, dated 2004) can be followed below.

The test system of data set [1] is L1210 cells. Description: DNA cleavage (intact chromatin precipitation) in L1210 cells. The class given is cell-based, murine. On the procedure: FIG. 19. Comparison of the concentration-dependent effects of novel TT analogs and known DNA-damaging anticancer drugs on DNA cleavage in L1210 cells in vitro. […] After lysing the cells in HLB containing 0.2% Triton X-100, the detergent-soluble DNA fragments present in the supernatants and the intact chromatin DNA remaining in the pellets were separated by centrifugation and their radioactivity estimated by LSC. Results are expressed as [cpm in supernatant/cpm in supernatant+pellet]×100 at 24 h. For untreated controls (5.3±0.6% DNA fragmentation; striped area), the supernatant is 741±79 cpm and the pellet is 13,293±1,446 cpm.
FIG. 20. Comparison of the abilities of novel TT analogs to induce DNA cleavage in L1210 cells in vitro. Cells containing prelabeled DNA were incubated at 37° C. for 24 h in the presence or absence (control) of 7 μM concentrations of the indicated compounds. The protocol of the experiment and the determination of the results were identical to those of FIG. 12.
FIG. 22. Irreversibility of the effects of novel TT analogs and known DNA-damaging anticancer drugs on DNA cleavage in L1210 cells in vitro. Cells containing prelabeled DNA were incubated at 37° C. for various periods of time in the presence or absence (control) of 10 μM TT1 or TT2 and 1.6 μM DAU or CPT. The protocol of the experiment and the determination of the results at 24 h were identical to those of FIG. 19, except that the drugs were either maintained in the medium for the whole 24-h period of incubation (open) or removed after the first 3 (striped) and 8 h (closed). After spinning and washing the appropriate samples to remove the drugs, cells were resuspended in 0.5 ml of fresh medium to complete the 24-h period of incubation in the absence of drugs. Vehicle-treated controls were similarly spun and washed at 3 and 8 h. Bars: means±SD (n=3).
Drug-induced DNA cleavage was determined by intact chromatin precipitation, using L1210, HL-60-S, HL-60-RV and HL-60-R8 cells which were prelabeled with 1 μCi of ^3H-thymidine for 2 h at 37° C., washed with 3×1 ml of ice-cold PBS, collected by centrifugation, and resuspended in fresh FCS-containing RPMI 1640 medium at a density of about 1×10^6 cells/0.5 ml for L1210 and 0.5×10^6 cells/0.5 ml for HL cells. Except when otherwise specified, such cells containing prelabeled DNA were then exposed for 24 h to TTs and drugs known to induce DNA fragmentation. After centrifugation at 200×g for 10 min to discard the drugs and wash the cells, the intact cell pellets were lysed for 30 min in 0.5 ml of HLB, centrifuged at 12,000×g for 30 min to collect the supernatants, and resuspended in 0.5 ml of HLB. After another similar centrifugation, the radioactivities in the pooled supernatants (detergent-soluble low molecular weight DNA fragments) and the pellet (intact chromatin DNA) were determined by LSC: % DNA fragmentation=[cpm in supernatant/cpm in supernatant+pellet]×100. Before being counted in 6 ml of Bio-Safe NA, the intact pelleted chromatin was incubated for 2 h at 60° C. in the presence of 0.6 ml of NCS tissue solubilizer (Amersham).

Data set [2] deals with L1210 cells. Description: L1210 tumor cell proliferation assay (Coulter counter). The conditions noted are these: for inhibitory effect on L1210 cell growth: 256 nM, 4 days. Here is the method: (§1) FIG. 1. […] For tumor cell growth and viability, L1210 cells were respectively seeded in triplicate at initial densities of 1×10^4 and 1.11×10^4 cells/0.5 ml/well in RPMI 1640 medium containing 7.5% FCS and penicillin (100 IU/ml)-streptomycin (100 μg/ml), and grown for 4 days in the presence or absence (control) of 256 nM concentrations of the indicated compounds in a humidified incubator at 37° C. with 5% CO2 in air. Cell density was monitored using a Coulter counter. […] The ability of viable cells/0.5 ml to bioreduce 0.1 ml of MTS:PMS (20:1) reagent over a 3-h incubation period at 37° C. was assessed by measuring the absorbamce of the water-soluble formazan products at A490 nm.
FIG. 3. […] The protocol of the experiment was identical to that of FIG. 1. […] Drug concentrations are plotted on a logarithmic scale.
(§2) TT0 was purchased from Aldrich (Milwaukee, Wis.). All solutions of synthetic TTs and tricyclic pyrone H10, vincristine (VCR; a gift from Lilly Researeh Laboratories, Indianapolis, Ind.) and camptothecin (CPT; from Sigma Chemical Co., St Louis, Mo.) were dissolved and diluted in dimethyl sulfoxide (DMSO), whereas daunomycin (DAU) (from Sigma) solutions were prepared in 0.1 M potassium phosphate buffer, pH 7.4, containing 0.9% NaCl. Suspension cultures of murine L1210 lymphocytic leukemia cells (American Type Culture Collection, Rockville, Md.) were maintained in continuous exponential growth by twice-a-week passage in RPMI 1640 medium supplemented with 7.5% fortified bovine calf serum (FCS; HyClone Laboratories, Logan, Utah) and penicillin (100 IU/ml)-streptomycin (100 μg/ml), and incubated in the presence or absence of drugs at 37° C. in a humidified atmosphere containing 5% CO2. […] Control cells incubated in the absence of drugs were similarly treated with vehicle only and, in every experiment, all incubates received the same volume of solvent. For drug removal, incubates were spun at 200×g for 10 min, drug-containing supernatants were discarded, and intact cells were washed thrice with 1 ml of the above RPMI 1640 culture medium and resuspended in 0.5 ml of fresh medium for further incubation.
For tumor cell growth, L1210 cells were resuspended in fresh FCS-containing RPMI 1640 medium, plated at an initial density of 1×10^4 cells/0.5 ml, and incubated in 48-well Costar cell culture plates (Costar, Cambridge, Mass.). Except when otherwise specified, cells were grown for 4 days in the presence or absence of drugs and their density was monitored every 24 h using a Coulter counter (Coulter Electronics, Luton Beds, UK).

Data set [3] deals with L1210 cells. Description: cells. The conditions noted are these: for inhibitory effect on L1210 cell viability: 256 nM, 4 days; for IC50: read-out: IC50 (concentration inhibiting by 50% the viability of L1210 leukemic cells), day 4, Table 2 series. On the procedure: as §1
FIG. 4. […] Cells were seeded in triplicate at initial densities of 100,000 or 11,100 cells/0.5 ml/well and respectively incubated for 2 or 4 days in the presence or absence (control) of the indicated concentrations of drugs, which are plotted on a logarithmic scale. The ability of viable cells/0.5 ml to bioreduce 0.1 ml of MTS:PMS (20:1) reagent over a 3-h incubation period was assessed as described in FIG. 1.
as §2
L1210, HL-60-S, HL60-RV and HL-60-R8 cells suspended in FCS-containing RPMI 1640 medium were grown in 48-well Costar cell culture plates for up to 4 days in the presence or absence of drugs to evaluate drug cytotoxicity.

The test system of data set [4] is Plasmodium falciparum 3D7. Description: Antimalarial activity, inhibition of Plasmodium falciparum 3D7. The conditions noted are these: malaria strain 3D7. In kind it is cell-based.
In data set [5] the target is Malaria protease plasmepsin II (Plasmodium falciparum, UniProt P46925). The data set is described as follows: Inhibition of malaria protease plasmepsin II. The class given is biochemical.
A short description of data set [6]: Water solubility (stated in words). In kind it is physicochemical.
Data set [7] concerns L1210 cells. Description: Mitotic index of L1210 cells. In kind it is cell-based, murine. The conditions noted are these: 24-h treatment; 0.2 μM VCR, 1 μM H10 (FIG. 18). On the procedure: FIG. 18. Effects of the novel TT analog TT2 and DAU on the mitotic index of L1210 cells in vitro. […] Cells (10^6/0.5 ml of RPMI 1640 medium) were incubated in triplicate for 24 h at 37° C. in the presence or absence (control) of 0.256, 0.64, 1.6 and 4 μM TT2, 0.256, 0.64 and 1.6 μM DAU, 0.2 μM VCR or 1 μM H10. After fixation with MeOH:acetic acid (3:1) and staining with 0.1% crystal violet, about 500 cells/slide were scored for mitotic figures and the mitotic index was expressed as the % of mitotic cells in drug-treated cultures divided by the % of mitotic cells in non-treated controls. The mean % of mitotic cells in control at 24 h was 1.86±0.43%.
L1210 cells (about 1×10^6/0.5 ml of FCS-containing RPMI 1640 medium) were incubated in triplicate for 24 h at 37° C. in the presence or absence of TTs or known antimitotic drugs, and collected by centrifugation at 200×g for 10 min to determine their mitotic index. For hypotonic treatment, cells were resuspended in 1 ml of 75 mM KCl for 20 min at 4° C. After fixation in 1 ml of MeOH:acetic acid (3:1), the final cell pellets were collected by centrifugation, resuspended in 75 μl of MeOH:acetic acid (3:1), dispensed onto glass slides, air dried, and stained by spreading 40 μl of 0.1% crystal violet under a coverslip. The % of cells in mitosis was determined microscopically by counting 500 cells/slides. The mitotic index was calculated as the % of mitotic cells in drug-treated cultures divided by the % of mitotic cells in non-treated controls.

Where “and” joins values, the source holds several entries; their conditions need not be identical. Equal entries are not always repeated.

Sequence of Malaria protease plasmepsin II (P46925 125-453): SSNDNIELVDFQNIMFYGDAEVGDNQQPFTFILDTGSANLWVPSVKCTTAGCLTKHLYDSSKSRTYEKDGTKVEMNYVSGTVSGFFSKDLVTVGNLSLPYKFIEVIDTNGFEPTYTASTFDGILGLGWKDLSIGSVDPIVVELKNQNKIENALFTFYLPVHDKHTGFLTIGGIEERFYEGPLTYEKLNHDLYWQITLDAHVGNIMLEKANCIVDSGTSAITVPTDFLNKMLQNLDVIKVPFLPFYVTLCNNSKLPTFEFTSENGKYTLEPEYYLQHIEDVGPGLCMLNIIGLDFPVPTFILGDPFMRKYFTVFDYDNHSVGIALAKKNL

In the case of “9,10-Dihydro-9,10-[1′,2′]benzenoanthracene-1,4,5,8-tetraone [TT1]”, the “DNA fragmentation at 24 h after short exposure” value in the data set on L1210 cells [1] (10 μM, drug removed after 3 and 8 h) was 36-45%. Besides, the “DNA cleavage (% DNA fragmentation)” value with L1210 cells [1] (10 μM, whole 24 h) is 45% and 40%.

Turning to `COC(=O)C1=CC(=O)[C@H]2C3c4ccccc4C(c4c(OC)ccc(OC)c43)[C@H]2C1=O` (relative stereo) [TT10, (4aS*,9aR*)-5,8-Dimethoxy-2-methoxycarbonyl-4a,9,9a,10-tetrahydro-9,10-[1′,2′]benzenoanthracene-1,4-dione], the “inhibitory effect on L1210 cell growth” value with L1210 cells [2] is on record as “weak”. Further, in the data set with L1210 cells [3], the “inhibitory effect on L1210 cell viability” value is “weak”.

Consider `COC(=O)[C@@]12C(=O)C=CC(=O)[C@@H]1C1c3ccccc3C2c2c(OC)ccc(OC)c21` (relative stereo) [TT11, (4aR*,9aR*)-5,8-Dimethoxy-4a-methoxycarbonyl-9,9a,10-trihydro-9,10-[1′,2′]benzenoanthracene-1,4-dione], for which, in the data set on L1210 cells [1] (7 μM, 24 h, control 5%), the “DNA cleavage (% DNA fragmentation)” value was 7%. Moreover, the “inhibitory effect on L1210 cell growth” value in the data set with L1210 cells [2] is recorded as “marginal”. In the data set on L1210 cells [3], the “inhibitory effect on L1210 cell viability” value is “marginal”.

In the case of `CC[C@@]1(O)C(=O)OCc2c1cc1n(c2=O)Cc2cc3ccccc3nc2-1` [CPT, camptothecin, reference compound], the “DNA cleavage (% DNA fragmentation)” value in the data set on L1210 cells [1] (1.6 μM, 24 h) was 57%. In the data set with L1210 cells [1] (1.6 μM, maintained or removed after 3 or 8 h), the “DNA fragmentation at 24 h, drug maintained or removed” value is on record as 51-58%. In addition, the Emax in the data set with L1210 cells [1] (Mus musculus, L1210, concentrations of CPT higher than 1.6 μM, 24 h, read-out: DNA cleavage, plateau of maximal stimulation) was in the range of 60 to 70%.

Consider `CC(C)(C)OC(=O)CCNC1=C(Br)C(=O)C2=C(C1=O)C1C3=C(C(=O)C=CC3=O)C2c2ccccc21` (stereo not drawn) [Compound 12, 2-Bromo-3-[2-(t-butoxycarbonyl)ethylamino]-9,10-dihydro-9,10-[1,2]benzenoanthracene-1,4,5,8-tetraone], for which, in the data set with L1210 cells [3], the IC50 is 310 nM.

For the compound `O=C(O)CCNC1=C(Br)C(=O)C2=C(C1=O)C1C3=C(C(=O)C=CC3=O)C2c2ccccc21` (stereo not drawn) [Compound 13, N-(2-Bromo-9,10-dihydro-1,4,5,8-tetraoxo-9,10-[1,2]benzenoanthracene-3-yl)-3-aminopropanoic acid], in the data set on L1210 cells [3], the IC50 was determined as 1480 nM.

In the case of `c1ccc2c(c1)C1c3ccccc3C2c2ccccc21` [TT0, triptycene], in the data set with L1210 cells [2] (in vitro), the “activity against macromolecule synthesis and growth of L1210 cells” value is “inactive”.

For `COC1=C(Br)C(=O)C2=C(C1=O)C1C3=C(C(=O)C=CC3=O)C2c2ccccc21` (stereo not drawn) [TT13, 2-Bromo-3-methoxy-9,10-dihydro-9,10-[1′,2′]benzenoanthracene-1,4,5,8-tetraone], the IC50 in the data set with L1210 cells [3] stood at 291 nM.

On to `CNC1=C(Br)C(=O)C2=C(C1=O)C1C3=C(C(=O)C=CC3=O)C2c2ccccc21` (stereo not drawn) [TT14, 2-Bromo-3-(methylamino)-9,10-dihydro-9,10-[1′,2′]benzenoanthracene-1,4,5,8-tetraone], for which the figures for the IC50 (in data set [4]; in data set [5]; with L1210 cells [3]) were 4700 nM, 9700 nM and 430 nM, respectively.

Take `CCOC(=O)CCNC1=C(Br)C(=O)C2=C(C1=O)C1C3=C(C(=O)C=CC3=O)C2c2ccccc21` (stereo not drawn) [TT17, 2-Bromo-3-[2-(ethoxycarbonyl)ethylamino]-9,10-dihydro-9,10-[1′,2′]benzenoanthracene-1,4,5,8-tetraone]: the IC50 in the data set with L1210 cells [3] was found to be 240 nM.

For the compound `O=C(O)CCNC1=C(O)C(=O)C2=C(C1=O)C1C3=C(C(=O)C=CC3=O)C2c2ccccc21` (stereo not drawn) [TT21], the “water solubility” value in data set [6] was “water soluble”.

For the compound `CC[C@]1(O)C[C@H]2CN(CCc3c([nH]c4ccccc34)[C@@](C(=O)OC)(c3cc4c(cc3OC)N(C=O)[C@H]3[C@@](O)(C(=O)OC)[C@H](OC(C)=O)[C@]5(CC)C=CCN6CC[C@]43[C@@H]65)C2)C1` [VCR, vincristine, reference compound], in the data set on L1210 cells [7], the “increase in the mitotic index” value is recorded as 16 fold.

In data set [4] (Plasmodium falciparum), `CC(C)c1nc(CN(C)C(=O)N[C@H](C(=O)N[C@@H](Cc2ccccc2)C[C@H](O)[C@H](Cc2ccccc2)NC(=O)OCc2cncs2)C(C)C)cs1` [ritonavir, reference compound] yielded an IC50 of 9700 nM.
